From ChEMBL document CHEMBL5120927, “LEGO-Lipophosphonoxins: A Novel Approach in Designing Membrane Targeting Antimicrobials” (J Med Chem, 2022)
≈ marks a conversion by molar mass, not a printed value.

Assays:
Staphylococcus aureus [1] = test: Antibacterial activity against wild type Staphylococcus aureus 4566/A assessed as reduction in microbial growth incubated for 24 hrs by microdilution assay; format: functional
Staphylococcus aureus [2] = test: Antibacterial activity against […] Staphylococcus aureus 4463/A assessed as reduction in microbial growth incubated for 24 hrs by microdilution assay; format: functional
Staphylococcus aureus [3] = test: Antibacterial activity against wild type Staphylococcus aureus 4738/B assessed as reduction in microbial growth incubated for 24 hrs by microdilution assay; format: functional
Staphylococcus aureus [4] = test: Antibacterial activity against […] Staphylococcus aureus 4460/A assessed as reduction in microbial growth incubated for 24 hrs by microdilution assay; format: functional
Staphylococcus aureus [5] = test: Antibacterial activity against antibiotic resistant Staphylococcus aureus 4504/A assessed as reduction in microbial growth incubated for 24 hrs by microdilution assay; format: functional
Staphylococcus aureus [6] = test: Antibacterial activity against antibiotic resistant Staphylococcus aureus 4502/A assessed as reduction in microbial growth incubated for 24 hrs by microdilution assay; format: functional
Staphylococcus aureus [7] = test: Antibacterial activity against wild type Staphylococcus aureus 4968/C assessed as reduction in microbial growth incubated for 24 hrs by microdilution assay; format: functional
Staphylococcus aureus [8] = test: Antibacterial activity against wild type Staphylococcus aureus 78/CF assessed as reduction in microbial growth incubated for 24 hrs by microdilution assay; format: functional
Staphylococcus aureus [9] = test: Antibacterial activity against wild type Staphylococcus aureus 4788/B assessed as reduction in microbial growth incubated for 24 hrs by microdilution assay; format: functional
Staphylococcus aureus [10] = test: Antibacterial activity against wild type Staphylococcus aureus 4740/B assessed as reduction in microbial growth incubated for 24 hrs by microdilution assay; format: functional
Staphylococcus aureus [11] = test: Antibacterial activity against wild type Staphylococcus aureus 4515/A assessed as reduction in microbial growth incubated for 24 hrs by microdilution assay; format: functional
Staphylococcus aureus [12] = test: Antibacterial activity against […] Staphylococcus aureus 4461/A assessed as reduction in microbial growth incubated for 24 hrs by microdilution assay; format: functional
Staphylococcus aureus [13] = test: Antibacterial activity against wild type Staphylococcus aureus 5079/C assessed as reduction in microbial growth incubated for 24 hrs by microdilution assay; format: functional
Staphylococcus aureus [14] = test: Antibacterial activity against antibiotic resistant Staphylococcus aureus 4679/B assessed as reduction in microbial growth incubated for 24 hrs by microdilution assay; format: functional
Staphylococcus aureus [15] = test: Antibacterial activity against wild type Staphylococcus aureus 4482/A assessed as reduction in microbial growth incubated for 24 hrs by microdilution assay; format: functional
Staphylococcus aureus [16] = test: Antibacterial activity against wild type Staphylococcus aureus 4717/B assessed as reduction in microbial growth incubated for 24 hrs by microdilution assay; format: functional
Staphylococcus aureus [17] = test: Antibacterial activity against antibiotic resistant Staphylococcus aureus 77/CF assessed as reduction in microbial growth incubated for 24 hrs by microdilution assay; format: functional
Staphylococcus aureus [18] = test: Antibacterial activity against wild type Staphylococcus aureus 4557/A assessed as reduction in microbial growth incubated for 24 hrs by microdilution assay; format: functional
Staphylococcus aureus [19] = test: Antibacterial activity against wild type Staphylococcus aureus 4904/C assessed as reduction in microbial growth incubated for 24 hrs by microdilution assay; format: functional
Staphylococcus aureus [20] = test: Antibacterial activity against wild type Staphylococcus aureus 4883/C assessed as reduction in microbial growth incubated for 24 hrs by microdilution assay; format: functional
Staphylococcus aureus [21] = test: Antibacterial activity against wild type Staphylococcus aureus 4561/A assessed as reduction in microbial growth incubated for 24 hrs by microdilution assay; format: functional
[22] = Hemolytic activity in human RBC assessed as haemoglobin release measured after 3 hr; format: toxicity, cell-based, Erythrocyte; settings: red blood cells (erythrocytes)
Staphylococcus aureus [23] = test: microbe, parasite or virus in culture; settings: 4880/C, 24 h
Description: Antibacterial activity against wild type Staphylococcus aureus 4880/C assessed as reduction in microbial growth incubated for 24 hrs by microdilution assay

Enterococcus faecalis = test: Antibacterial activity against Enterococcus faecalis ATCC 29212 = CCM 4224 assessed as inhibition of bacterial growth incubated for 24 hrs by microdilution assay; format: functional
Escherichia coli [24] = test: Antibacterial activity against multidrug-resistant Escherichia coli CE5556 expressing CTX-M-15 assessed as reduction in microbial growth incubated for 24 hrs by microdilution assay; format: functional
Staphylococcus aureus [25] = test: Antibacterial activity against wild type Staphylococcus aureus 4679/B assessed as reduction in microbial growth incubated for 24 hrs by microdilution assay; format: functional
Staphylococcus aureus [26] = test: Antibacterial activity against Staphylococcus aureus ATCC 29213 = CCM 4223 assessed as inhibition of bacterial growth incubated for 24 hrs in presence of BSA by microdilution assay; format: functional
Staphylococcus aureus [27] = test: Antibacterial activity against methicillin resistant Staphylococcus aureus 4591/A assessed as reduction in microbial growth incubated for 24 hrs by microdilution assay; format: functional
Pseudomonas aeruginosa [28] = test: Antibacterial activity against Pseudomonas aeruginosa ATCC 27853 = CCM 3955 assessed as inhibition of bacterial growth incubated for 24 hrs by microdilution assay; format: functional
Escherichia coli [29] = test: Antibacterial activity against Escherichia coli ATCC 25922 = CCM 3954 assessed as inhibition of bacterial growth incubated for 24 hrs by microdilution assay; format: functional
[30] = Gradient chromatographic hydrophobicity index of the compound at pH 3.7 by HPLC analysis; format: ADME
Pseudomonas aeruginosa [31] = test: Antibacterial activity against multidrug-resistant Pseudomonas aeruginosa assessed as reduction in microbial growth incubated for 24 hrs by microdilution assay; format: functional
Staphylococcus aureus [32] = test: Antibacterial activity against wild type Staphylococcus aureus 4504/A assessed as reduction in microbial growth incubated for 24 hrs by microdilution assay; format: functional
Staphylococcus aureus [33] = test: microbe, parasite or virus in culture; settings: 5017/C, 24 h
Description: Antibacterial activity against wild type Staphylococcus aureus 5017/C assessed as reduction in microbial growth incubated for 24 hrs by microdilution assay

Staphylococcus aureus [34] = test: Antibacterial activity against Staphylococcus aureus ATCC 29213 = CCM 4223 assessed as inhibition of bacterial growth incubated for 24 hrs by microdilution assay; format: functional
Enterococcus faecium = test: Antibacterial activity against vancomycin resistant Enterococcus faecium 419/ANA assessed as reduction in microbial growth incubated for 24 hrs by microdilution assay; format: functional
Staphylococcus aureus [35] = test: Antibacterial activity against wild type Staphylococcus aureus 4502/A assessed as reduction in microbial growth incubated for 24 hrs by microdilution assay; format: functional
Escherichia coli [36] = test: Antibacterial activity against Escherichia coli ATCC 25922 = CCM 3954 assessed as inhibition of bacterial growth incubated for 24 hrs in presence of BSA by microdilution assay; format: functional
Staphylococcus aureus [37] = test: microbe, parasite or virus in culture; settings: 4862/C, 24 h
Description: Antibacterial activity against wild type Staphylococcus aureus 4862/C assessed as reduction in microbial growth incubated for 24 hrs by microdilution assay

[38] = test system: Staphylococcus epidermidis; test: Antibacterial activity against Staphylococcus epidermidis CCM 7221 assessed as inhibition of bacterial growth incubated for 24 hrs by microdilution assay; format: functional
Staphylococcus aureus [39] = test: Antibacterial activity against wild type Staphylococcus aureus 77/CF assessed as reduction in microbial growth incubated for 24 hrs by microdilution assay; format: functional

Compound	MIC (Staphylococcus aureus [1]) [µg/mL]	MIC (Staphylococcus aureus [2]) [µg/mL]	MIC (Staphylococcus aureus [3]) [µg/mL]	MIC (Staphylococcus aureus [4]) [µg/mL]	MIC (Staphylococcus aureus [7]) [µg/mL]	MIC (Staphylococcus aureus [8]) [µg/mL]	MIC (Staphylococcus aureus [9]) [µg/mL]	MIC (Staphylococcus aureus [10]) [µg/mL]	MIC (Staphylococcus aureus [11]) [µg/mL]	MIC (Staphylococcus aureus [12]) [µg/mL]	MIC (Staphylococcus aureus [13]) [µg/mL]	MIC (Staphylococcus aureus [15]) [µg/mL]	MIC (Staphylococcus aureus [16]) [µg/mL]	MIC (Staphylococcus aureus [18]) [µg/mL]	MIC (Staphylococcus aureus [19]) [µg/mL]	MIC (Staphylococcus aureus [20]) [µg/mL]	MIC (Staphylococcus aureus [21]) [µg/mL]	MIC (Staphylococcus aureus [23]) [µg/mL]	MIC (Staphylococcus aureus [25]) [µg/mL]	MIC (Staphylococcus aureus [32]) [µg/mL]	also measured
GENTAMICIN	0.25	0.25	0.25	0.25	0.25	1	0.25	0.25	0.25	0.25	0.25	0.25	0.25	1	0.25	0.25	0.25	–	–	–	MIC (Staphylococcus aureus [5]): > 32 µg/mL; MIC (Staphylococcus aureus [6]): > 32 µg/mL; MIC (Staphylococcus aureus [14]): > 32 µg/mL; MIC (Staphylococcus aureus [17]): > 32 µg/mL
CCCCCCOP(=O)(CCN(CCCNC(=N)N)CCCNC(=N)N)OCCCCCCCCOP(=O)(CCN(CCCNC(=N)N)CCCNC(=N)N)OCCCCCC.Cl.Cl.Cl.Cl.Cl.Cl (configuration not stated)	0.5	0.5	0.5	0.5	0.5	0.5	0.5	0.5	0.5	0.5	0.5	0.5	0.25	0.5	0.5	0.5	0.5	0.5	0.5	0.25	HC50 at 3 h [22]: 139 µg/mL; MIC (Enterococcus faecalis): 8 µg/mL; MIC (Escherichia coli [24]): 5 µg/mL; MIC (Staphylococcus aureus [26]): 0.5 µg/mL; MIC (Staphylococcus aureus [27]): 5 µg/mL; MIC (Pseudomonas aeruginosa [28]): 8 µg/mL; MIC (Escherichia coli [29]): 16 µg/mL; CHI [30]: 31.5; MIC (Pseudomonas aeruginosa [31]): 8 µg/mL; MIC (Staphylococcus aureus [33]): 0.5 µg/mL; MIC (Staphylococcus aureus [34]): 5 µg/mL; MIC (Enterococcus faecium): 16 µg/mL; MIC (Staphylococcus aureus [35]): 0.5 µg/mL; MIC (Escherichia coli [36]): 2 µg/mL; MIC (Staphylococcus aureus [37]): 0.5 µg/mL; MIC [38]: 0.5 µg/mL; MIC (Staphylococcus aureus [39]): 0.5 µg/mL
O=C(N[C@H](CO)[C@H](O)c1ccc([N+](=O)[O-])cc1)C(Cl)Cl [CHLORAMPHENICOL]	4	2	4	2	4	1	2	1	2	2	2	2	4	2	2	4	4	2 (≈ 6.19 µM)	4	4	MIC (Staphylococcus aureus [33]): 4 µg/mL (≈ 12.4 µM); MIC (Staphylococcus aureus [35]): 2 µg/mL; MIC (Staphylococcus aureus [37]): 4 µg/mL (≈ 12.4 µM); MIC (Staphylococcus aureus [39]): 1 µg/mL
